From patent US12282027B2, “High-throughput NMR approach for in-membrane protein ligand screening” (University of South Florida, priority 2021, dated 2025) come the findings set out here.

For the assay, the target named is T1, A1R receptor (Homo sapiens, UniProt P30542).
T1 construct: FLAG (N); His10 (C); TEV protease cleavage site (N); α-Factor peptide (secretion signal) (N); made in house; host or cells: Pichia pastoris
T1 sequence (P30542 1-326): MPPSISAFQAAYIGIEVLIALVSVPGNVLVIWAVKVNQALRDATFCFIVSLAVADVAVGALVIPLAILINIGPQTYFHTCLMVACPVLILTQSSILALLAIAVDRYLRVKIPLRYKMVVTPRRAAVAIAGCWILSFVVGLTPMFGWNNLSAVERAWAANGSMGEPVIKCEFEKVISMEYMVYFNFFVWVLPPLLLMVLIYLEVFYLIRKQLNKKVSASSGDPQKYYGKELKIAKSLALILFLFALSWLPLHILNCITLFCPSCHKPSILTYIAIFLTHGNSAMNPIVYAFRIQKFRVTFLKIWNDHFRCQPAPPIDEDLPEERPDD
Nature of the assay: In-membrane WaterLOGSY NMR, 10× diluted A1R in yeast cell membrane (YCM). The class given is binding. The conditions noted are these: 10× diluted A1R in YCM from Pichia pastoris; FIG. 5, FIG. 8. As for the experimental part: The human A1 receptor and A2A receptor were cloned into pPIC9K with an N-terminal Flag tag and a C-terminal His tag. […] The lysed cell pellets were centrifuged at 9,720×g for 30 min to remove all debris and keep the released membrane fraction parts.
At the end of fermentation, the cell pellets were collected after centrifugation at 4,000×g for 15 min at 4° C. and then washed once with 50 mM HEPES, pH 7.4, 100 mM NaCl buffer. The cell pellets were resuspended into Receptor Lysis Buffer (50 mM HEPES buffer, 10% glycerol, 100 mM NaCl, 2.5 mM EDTA) using the ratio of cell pellets to buffer equal to 1:4. […] The disrupted cell pellets were centrifuged at 9,720×g for 30 min at 4° C. to discard unbroken cells and cellular debris.
NMR samples for membranes typically consisted of 270-300 μL volumes of the cell membrane in 50 mM HEPES buffer, 10% glycerol, 100 mM NaCl, 2.5 mM EDTA, doped with 10% D2O and different concentration ligands prepared in DMSO as needed.
STD and WaterLOGSY experiments were conducted at a ^1H frequency of 600 MHz using Varian Inova spectrometer. 5 mm diameter NMR tubes with a sample volume of 270-300 μL were used in all experiments. Solutions were buffered using a HEPES buffer corrected to pH 7.4 and 10% glycerol. The sample preparation is exemplified as follows, the compound (solution in DMSO-d6), 30 μL D2O was added to 240 μL membrane in an Eppendorf tube. The resulting solution was spun to ensure full mixing and transferred to a 5 mm NMR tube before the run. Both STD and WaterLOGSY spectra were recorded for each sample. WaterLOGSY spectra in the absence of protein receptor were recorded.
`N[C@@H](Cc1ccc(O)c(F)c1)C(=O)O` [3-fluorotyrosine]: the “WaterLOGSY NOE signal of the ligand (negative NOE = specific binding)” value is “absence of obvious NOE signals”. Turning to `N[C@@H](Cc1ccc(F)cc1)C(=O)O` [4-Fluorophenylalanine], the “WaterLOGSY NOE signal of the ligand (negative NOE = specific binding)” value is on record as “positive NOEs”. The entry for CTAP is “absence of obvious NOE signals”.
